Test results as given in ChEMBL document CHEMBL1201862, “PubChem BioAssay data set” (2004).
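In this assay, cells in 96-well plates receive the compound at five concentrations for 48 hours. Endpoints are linearly interpolated between the surrounding concentrations. GI50 marks 50% less growth.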 Activity calls are given as the source filed them. Cut-off read from the data, not from the text of the source: active = GI50 up to about 1.1 µM and inactive = higher.

Legend:
Assay in all cases: growth of human tumour cells (NCI), 48 h
Malme-3M = test system: Malme-3M
SK-MEL-5 = test system: SK-MEL-5
NCI-H522 = test system: NCI-H522
NCI-H226 = test system: NCI-H226
IGROV-1 = test system: IGROV-1
TK-10 = test system: TK-10
RPMI-8226 = test system: RPMI-8226
SK-MEL-28 = test system: SK-MEL-28
RXF 393 = test system: RXF 393
NCI-H23 = test system: NCI-H23
OVCAR-4 = test system: OVCAR-4
DLD-1 = test system: DLD-1
SW-620 = test system: SW-620
SK-OV-3 = test system: SK-OV-3
786-0 = test system: 786-0
MOLT-4 = test system: MOLT-4
HOP-92 = test system: HOP-92

Cc1c2ccncc2c(C)c2c1[nH]c1ccc(Cl)cc12
GI50 (Malme-3M): 5.68 µM (inactive)
GI50 (SK-MEL-5): 4.75 µM (inactive)
GI50 (NCI-H522): 2.36 µM (inactive)
GI50 (NCI-H226): 3.17 µM (inactive)
GI50 (IGROV-1): 2.86 µM (inactive)
GI50 (TK-10): 6.07 µM (inactive)
GI50 (RPMI-8226): 1.59 µM (inactive)
GI50 (SK-MEL-28): 5.69 µM (inactive)
GI50 (RXF 393): 4.58 µM (inactive)
GI50 (NCI-H23): 3.56 µM (inactive)
GI50 (OVCAR-4): 2.11 µM (inactive)
GI50 (DLD-1): 2.15 µM (inactive)
GI50 (SW-620): 1.52 µM (inactive)
GI50 (SK-OV-3): 7.19 µM (inactive)
GI50 (786-0): 1.07 µM (active)

COc1cc2c(c(OC)c1)C1(CC(CC#N)C2)SCCS1 (centres undefined)
GI50 (Malme-3M): > 100 µM (inactive)
GI50 (SK-MEL-5): 62.2 µM (inactive)
GI50 (NCI-H522): < 0.01 µM (active)
GI50 (NCI-H226): > 100 µM (inactive)
GI50 (IGROV-1): > 100 µM (inactive)
GI50 (TK-10): > 100 µM (inactive)
GI50 (RPMI-8226): > 100 µM (inactive)
GI50 (SK-MEL-28): > 100 µM (inactive)
GI50 (RXF 393): > 100 µM (inactive)
GI50 (OVCAR-4): > 100 µM (inactive)
GI50 (DLD-1): > 100 µM (inactive)
GI50 (MOLT-4): > 100 µM (inactive)
GI50 (SW-620): > 100 µM (inactive)
GI50 (SK-OV-3): > 100 µM (inactive)
GI50 (786-0): > 100 µM (inactive)

COc1cc2c(cc1OC)C(C(=O)c1cccc(OC)c1OC)C(=O)N(C)CC2 (centres undefined)
GI50 (Malme-3M): > 100 µM (inactive)
GI50 (SK-MEL-5): > 100 µM (inactive)
GI50 (NCI-H522): > 100 µM (inactive)
GI50 (NCI-H226): > 100 µM (inactive)
GI50 (HOP-92): 65.5 µM (inactive)
GI50 (IGROV-1): > 100 µM (inactive)
GI50 (TK-10): > 100 µM (inactive)
GI50 (RPMI-8226): > 100 µM (inactive)
GI50 (SK-MEL-28): > 100 µM (inactive)
GI50 (RXF 393): > 100 µM (inactive)
GI50 (NCI-H23): > 100 µM (inactive)
GI50 (OVCAR-4): > 100 µM (inactive)
GI50 (DLD-1): > 100 µM (inactive)
GI50 (MOLT-4): > 100 µM (inactive)
GI50 (SW-620): > 100 µM (inactive)
GI50 (SK-OV-3): > 100 µM (inactive)
GI50 (786-0): > 100 µM (inactive)

O=c1c(-c2ccccc2)c(O)nc2[nH]c3ccccc3n12
GI50 (Malme-3M): > 100 µM (inactive)
GI50 (SK-MEL-5): > 100 µM (inactive)
GI50 (NCI-H522): > 100 µM (inactive)
GI50 (NCI-H226): > 100 µM (inactive)
GI50 (HOP-92): > 100 µM (inactive)
GI50 (IGROV-1): > 100 µM (inactive)
GI50 (TK-10): > 100 µM (inactive)
GI50 (RPMI-8226): > 100 µM (inactive)
GI50 (SK-MEL-28): > 100 µM (inactive)
GI50 (RXF 393): > 100 µM (inactive)
GI50 (NCI-H23): > 100 µM (inactive)
GI50 (OVCAR-4): > 100 µM (inactive)
GI50 (DLD-1): > 100 µM (inactive)
GI50 (MOLT-4): > 100 µM (inactive)
GI50 (SW-620): > 100 µM (inactive)
GI50 (SK-OV-3): > 100 µM (inactive)
GI50 (786-0): > 100 µM (inactive)

COC(=O)C(=O)C(C#N)c1cccc2ccccc12 (centres undefined)
GI50 (Malme-3M): > 100 µM (inactive)
GI50 (SK-MEL-5): > 100 µM (inactive)
GI50 (NCI-H522): > 100 µM (inactive)
GI50 (NCI-H226): > 100 µM (inactive)
GI50 (HOP-92): > 100 µM (inactive)
GI50 (IGROV-1): > 100 µM (inactive)
GI50 (RPMI-8226): > 100 µM (inactive)
GI50 (SK-MEL-28): > 100 µM (inactive)
GI50 (NCI-H23): > 100 µM (inactive)
GI50 (OVCAR-4): > 100 µM (inactive)
GI50 (DLD-1): > 100 µM (inactive)
GI50 (MOLT-4): > 100 µM (inactive)
GI50 (SW-620): > 100 µM (inactive)
GI50 (SK-OV-3): > 100 µM (inactive)
GI50 (786-0): > 100 µM (inactive)

O=C(NC12CC3CCC1CC(C3)C2)[C@@H]1CCCN1C(=O)OCc1ccccc1 (some centres undefined)
GI50 (Malme-3M): 37.5 µM (inactive)
GI50 (NCI-H522): 54.7 µM (inactive)
GI50 (NCI-H226): 58.9 µM (inactive)
GI50 (HOP-92): 18.6 µM (inactive)
GI50 (IGROV-1): > 100 µM (inactive)
GI50 (TK-10): 85.5 µM (inactive)
GI50 (RPMI-8226): 36.5 µM (inactive)
GI50 (SK-MEL-28): 31.1 µM (inactive)
GI50 (RXF 393): 16.8 µM (inactive)
GI50 (NCI-H23): 43.3 µM (inactive)
GI50 (DLD-1): 56.9 µM (inactive)
GI50 (MOLT-4): 30.1 µM (inactive)
GI50 (SW-620): 77.3 µM (inactive)
GI50 (SK-OV-3): 65.3 µM (inactive)
GI50 (786-0): 76.7 µM (inactive)

O=C1CC2CCN(C(=O)c3ccccc3)CC2CCN1 (centres undefined)
GI50 (Malme-3M): > 100 µM (inactive)
GI50 (SK-MEL-5): > 100 µM (inactive)
GI50 (NCI-H226): > 100 µM (inactive)
GI50 (HOP-92): > 100 µM (inactive)
GI50 (IGROV-1): > 100 µM (inactive)
GI50 (TK-10): > 100 µM (inactive)
GI50 (RPMI-8226): > 100 µM (inactive)
GI50 (SK-MEL-28): > 100 µM (inactive)
GI50 (RXF 393): > 100 µM (inactive)
GI50 (NCI-H23): > 100 µM (inactive)
GI50 (OVCAR-4): > 100 µM (inactive)
GI50 (DLD-1): > 100 µM (inactive)
GI50 (MOLT-4): > 100 µM (inactive)
GI50 (SW-620): > 100 µM (inactive)
GI50 (SK-OV-3): > 100 µM (inactive)
GI50 (786-0): > 100 µM (inactive)

ONc1ncnc2[nH]cnc12
GI50 (Malme-3M): > 100 µM (inactive)
GI50 (SK-MEL-5): > 100 µM (inactive)
GI50 (NCI-H522): > 100 µM (inactive)
GI50 (NCI-H226): > 100 µM (inactive)
GI50 (HOP-92): > 100 µM (inactive)
GI50 (IGROV-1): > 100 µM (inactive)
GI50 (TK-10): > 100 µM (inactive)
GI50 (RPMI-8226): 58.2 µM (inactive)
GI50 (SK-MEL-28): > 100 µM (inactive)
GI50 (NCI-H23): > 100 µM (inactive)
GI50 (OVCAR-4): > 100 µM (inactive)
GI50 (DLD-1): > 100 µM (inactive)
GI50 (MOLT-4): > 100 µM (inactive)
GI50 (SW-620): > 100 µM (inactive)
GI50 (786-0): > 100 µM (inactive)

COc1ccc(OCC(=O)O)c2c1CCCC2=O
GI50 (Malme-3M): > 100 µM (inactive)
GI50 (SK-MEL-5): > 100 µM (inactive)
GI50 (NCI-H522): > 100 µM (inactive)
GI50 (NCI-H226): 64.6 µM (inactive)
GI50 (HOP-92): > 100 µM (inactive)
GI50 (IGROV-1): > 100 µM (inactive)
GI50 (TK-10): > 100 µM (inactive)
GI50 (RPMI-8226): > 100 µM (inactive)
GI50 (SK-MEL-28): > 100 µM (inactive)
GI50 (RXF 393): > 100 µM (inactive)
GI50 (NCI-H23): > 100 µM (inactive)
GI50 (OVCAR-4): > 100 µM (inactive)
GI50 (DLD-1): > 100 µM (inactive)
GI50 (MOLT-4): > 100 µM (inactive)
GI50 (SW-620): > 100 µM (inactive)
GI50 (SK-OV-3): > 100 µM (inactive)
GI50 (786-0): > 100 µM (inactive)

Nc1ccn([C@@H]2C[C@H](CO)[C@@H](O)[C@H]2O)c(=O)n1
GI50 (Malme-3M): > 57.7 µM (inactive)
GI50 (SK-MEL-5): > 57.7 µM (inactive)
GI50 (NCI-H522): > 57.7 µM (inactive)
GI50 (NCI-H226): > 57.7 µM (inactive)
GI50 (IGROV-1): > 57.7 µM (inactive)
GI50 (TK-10): > 57.7 µM (inactive)
GI50 (RPMI-8226): > 57.7 µM (inactive)
GI50 (SK-MEL-28): > 57.7 µM (inactive)
GI50 (RXF 393): > 57.7 µM (inactive)
GI50 (OVCAR-4): > 57.7 µM (inactive)
GI50 (DLD-1): > 57.7 µM (inactive)
GI50 (MOLT-4): > 57.7 µM (inactive)
GI50 (SW-620): > 57.7 µM (inactive)
GI50 (SK-OV-3): > 57.7 µM (inactive)
GI50 (786-0): > 57.7 µM (inactive)

COC(=O)/C=C/C1C2C3(CCC(C)C12C)OCCS3 (centres undefined)
GI50 (Malme-3M): > 100 µM (inactive)
GI50 (SK-MEL-5): > 100 µM (inactive)
GI50 (NCI-H522): > 100 µM (inactive)
GI50 (NCI-H226): > 100 µM (inactive)
GI50 (HOP-92): > 100 µM (inactive)
GI50 (IGROV-1): > 100 µM (inactive)
GI50 (TK-10): > 100 µM (inactive)
GI50 (SK-MEL-28): > 100 µM (inactive)
GI50 (RXF 393): > 100 µM (inactive)
GI50 (NCI-H23): > 100 µM (inactive)
GI50 (OVCAR-4): > 100 µM (inactive)
GI50 (DLD-1): > 100 µM (inactive)
GI50 (MOLT-4): 40.6 µM (inactive)
GI50 (SW-620): > 100 µM (inactive)
GI50 (SK-OV-3): > 100 µM (inactive)
GI50 (786-0): > 100 µM (inactive)

CNS(=O)(=O)NNS(=O)(=O)c1ccc(Br)cc1
GI50 (Malme-3M): > 100 µM (inactive)
GI50 (SK-MEL-5): > 100 µM (inactive)
GI50 (NCI-H522): > 100 µM (inactive)
GI50 (NCI-H226): > 100 µM (inactive)
GI50 (HOP-92): 32.1 µM (inactive)
GI50 (IGROV-1): > 100 µM (inactive)
GI50 (TK-10): > 100 µM (inactive)
GI50 (RPMI-8226): > 100 µM (inactive)
GI50 (SK-MEL-28): > 100 µM (inactive)
GI50 (RXF 393): > 100 µM (inactive)
GI50 (NCI-H23): > 100 µM (inactive)
GI50 (OVCAR-4): > 100 µM (inactive)
GI50 (DLD-1): > 100 µM (inactive)
GI50 (SW-620): > 100 µM (inactive)
GI50 (SK-OV-3): > 100 µM (inactive)
GI50 (786-0): 63.1 µM (inactive)

COC(=O)CSc1nnc(-c2ccc(O)c([N+](=O)[O-])c2)[nH]1
GI50 (Malme-3M): > 100 µM (inactive)
GI50 (SK-MEL-5): > 100 µM (inactive)
GI50 (NCI-H226): > 100 µM (inactive)
GI50 (HOP-92): > 100 µM (inactive)
GI50 (IGROV-1): > 100 µM (inactive)
GI50 (TK-10): > 100 µM (inactive)
GI50 (RPMI-8226): > 100 µM (inactive)
GI50 (SK-MEL-28): > 100 µM (inactive)
GI50 (RXF 393): > 100 µM (inactive)
GI50 (NCI-H23): > 100 µM (inactive)
GI50 (OVCAR-4): > 100 µM (inactive)
GI50 (DLD-1): > 100 µM (inactive)
GI50 (MOLT-4): > 100 µM (inactive)
GI50 (SW-620): > 100 µM (inactive)
GI50 (786-0): > 100 µM (inactive)
